For the assay, the system named is osteoporotic femur. As to the kind of experiment: Bone density of osteoporotic femur after osteotomy with drug-cement insert in ovariectomized rats. It counts as in vivo, Female Sprague Dawley rats. The note with it: 10 mg/gm cement insert; three weeks; FIG. 5. Here is the method: Dosing solutions are made from a 5 mg/ml Example 2E' stock which is made by dissolving 2.08 mg of neat Example 2E' in 416 μl of 100% ethanol. The dosing solution for Example 2E' was made by adding 44.4 μL of the 5 mg/ml stock to 22.2 mg of calcium phosphate cement powder. The Vehicle dosing solution was made by adding 50.4 μl of ethanol containing no Example 2E' to 25.2 mg of calcium phosphate cement powder. After the ethanol has been vented off, the cement is wetted with a setting solution and mixed thoroughly for 1 minute as the cement begins to set. The cement is separated into five aliquots and placed on a glass microscope slide. […] After obtaining the CT image the cross sectional density of the bone 3 mm dorsal to the implant site is measured in three places and the measurements averaged. The density of the phantom is measured at the same time and is compared to the phantom measurement on week 0. […] For example the density of the femur of a vehicle treated rat imaged on week 0 is measured at 3028, 3597 and 3329 units (average=3318) and the phantom measured 4209 units. […] The relative density on bone at week 3 compared to week 0 is then calculated as: average week 3normalized/average week 0*100=3378/3318*100=101.8% The mean change in bone density of both groups after three weeks of treatment is shown in FIG. 5. […]

Consider `CCC#CC[C@H](C)[C@H](O)/C=C/[C@H]1CCC(=O)N1CCCCCCC(=O)O` [2E′, 7-((R)-2-((3S,4S,E)-3-hydroxy-4-methylnon-1-en-6-yn-1-yl)-5-oxopyrrolidin-1-yl)heptanoic acid], for which the “Bone density of osteoporotic femur” value is “Increased Bone Density”.

Values taken from US10729810B2, “Methods, systems, and compositions for promoting bone growth” (Cayman Chemical Company, Inc., priority 2013, dated 2020).
